Measured values reported in patent publication US20190327974A1, “SYNERGISTS FOR IMPROVED PESTICIDES” (priority 2017, published 2019).

What was measured:
Experiment in all cases: Protease selectivity panel
Assay type in all cases: biochemical
Details in all cases: 100 μM compound, n = 2
tPA = target: T1, tPA (Homo sapiens, UniProt P00750)
T1 construct: purchased R&D Systems
Protocol: (§1) Test compounds were dissolved in 100% DMSO to make 10 mM stock. Final compound concentration in assay is […]. Compounds were tested in duplicate wells at single concentration and the final concentration of DMSO in all assays was kept at 1%. Five reference compounds, AEBSF, Carfilzomib, Granzyme B Inhibitor II, Dec-RVKR-CMK, and Teneligliptin hydrobromide, were tested in an identical manner with 8 concentration points at 5× dilutions.

PSMB10 = target: T2, PSMB10 (Homo sapiens, UniProt P40306)
T2 construct: purchased BOSTON-BIOCHEM
Protocol: as §1

Prolyl Oligopeptidase = target: T3, Prolyl Oligopeptidase (Homo sapiens, UniProt P48147)
T3 construct: purchased R&D Systems
T3 sequence (P48147 1-710): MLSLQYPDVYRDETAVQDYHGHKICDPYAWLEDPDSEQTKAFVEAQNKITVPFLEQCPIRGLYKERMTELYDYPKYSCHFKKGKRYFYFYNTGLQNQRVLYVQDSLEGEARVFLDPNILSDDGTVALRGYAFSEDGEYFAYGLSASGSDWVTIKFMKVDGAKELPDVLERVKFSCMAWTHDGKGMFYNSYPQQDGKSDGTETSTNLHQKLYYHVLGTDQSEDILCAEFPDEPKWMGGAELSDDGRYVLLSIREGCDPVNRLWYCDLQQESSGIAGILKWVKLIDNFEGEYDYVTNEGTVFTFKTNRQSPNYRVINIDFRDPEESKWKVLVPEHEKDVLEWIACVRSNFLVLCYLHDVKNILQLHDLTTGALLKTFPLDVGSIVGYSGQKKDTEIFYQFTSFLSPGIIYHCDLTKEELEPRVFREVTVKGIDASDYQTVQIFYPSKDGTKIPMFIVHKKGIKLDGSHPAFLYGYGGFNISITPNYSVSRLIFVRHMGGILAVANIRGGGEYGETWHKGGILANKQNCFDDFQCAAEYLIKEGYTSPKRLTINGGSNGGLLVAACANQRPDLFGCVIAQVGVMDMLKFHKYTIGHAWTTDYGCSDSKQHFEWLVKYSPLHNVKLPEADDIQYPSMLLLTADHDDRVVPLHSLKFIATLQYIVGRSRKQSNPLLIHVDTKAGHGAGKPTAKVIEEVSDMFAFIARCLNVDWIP
Protocol: as §1

Thrombin = target: T4, Thrombin (Homo sapiens, UniProt P00734)
T4 construct: Thrombin; purchased R&D Systems
Protocol: as §1

Kallikrein11 = target: T5, Kallikrein11 (Homo sapiens, UniProt Q9UBX7)
T5 construct: purchased R&D Systems
T5 sequence (Q9UBX7 54-282): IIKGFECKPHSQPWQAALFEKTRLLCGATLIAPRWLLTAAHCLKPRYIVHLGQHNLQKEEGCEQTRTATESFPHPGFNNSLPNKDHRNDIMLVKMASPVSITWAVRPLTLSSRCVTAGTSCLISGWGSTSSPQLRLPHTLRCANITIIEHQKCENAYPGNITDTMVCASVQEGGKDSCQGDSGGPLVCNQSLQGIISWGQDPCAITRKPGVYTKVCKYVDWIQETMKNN
Protocol: as §1

DPP8 = target: T6, DPP8 (Homo sapiens, UniProt Q6V1X1)
T6 construct: purchased ENZO
Protocol: as §1

Spinesin = target: T7, Spinesin (Homo sapiens, UniProt Q9H3S3)
T7 construct: purchased R&D Systems
Protocol: as §1

PSMB7 = target: T8, PSMB7 (Homo sapiens, UniProt Q99436)
T8 construct: purchased BOSTON-BIOCHEM
Protocol: as §1

PSMB8 = target: T9, PSMB8 (Homo sapiens, UniProt P28062)
T9 construct: purchased BOSTON-BIOCHEM
Protocol: as §1

Furin = target: T10, Furin (Homo sapiens, UniProt P09958)
T10 construct: purchased R&D Systems
Protocol: as §1

Kallikrein13 = target: T11, Kallikrein13 (Homo sapiens, UniProt Q9UKR3)
T11 construct: purchased R&D Systems
T11 sequence (Q9UKR3 26-277 limits assumed): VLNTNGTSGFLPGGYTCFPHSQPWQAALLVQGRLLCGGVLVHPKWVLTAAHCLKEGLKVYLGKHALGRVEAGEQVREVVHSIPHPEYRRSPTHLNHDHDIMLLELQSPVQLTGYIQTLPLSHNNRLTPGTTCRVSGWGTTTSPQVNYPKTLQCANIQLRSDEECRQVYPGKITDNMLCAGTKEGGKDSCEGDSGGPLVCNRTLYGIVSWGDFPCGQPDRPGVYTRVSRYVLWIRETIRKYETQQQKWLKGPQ
Protocol: as §1

PSMB6 = target: T12, PSMB6 (Homo sapiens, UniProt P28072)
T12 construct: purchased BOSTON-BIOCHEM
Protocol: as §1

GranzymeA = target: T13, GranzymeA (Homo sapiens, UniProt P12544)
T13 construct: purchased ENZO
T13 sequence (P12544 29-262): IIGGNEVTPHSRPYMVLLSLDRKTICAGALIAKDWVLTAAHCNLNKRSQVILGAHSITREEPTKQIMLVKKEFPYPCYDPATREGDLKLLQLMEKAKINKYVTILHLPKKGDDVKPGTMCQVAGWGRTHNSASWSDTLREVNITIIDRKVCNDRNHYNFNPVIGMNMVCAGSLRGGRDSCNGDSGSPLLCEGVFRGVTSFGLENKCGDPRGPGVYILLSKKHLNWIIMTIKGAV
Protocol: as §1

DPP4 = target: T14, DPP4 (Homo sapiens, UniProt P27487)
T14 construct: purchased ENZO
Protocol: as §1

Plasmin = target: T15, Plasmin (Homo sapiens, UniProt P00747)
T15 construct: purchased R&D Systems
Protocol: as §1

Factor-Xa = target: T16, Factor-Xa (Homo sapiens, UniProt P00742)
T16 construct: Factor Xa; Calbiochem; B76791; purchased Calbiochem
Protocol: as §1

GranzymeK = target: T17, GranzymeK (Homo sapiens, UniProt P49863)
T17 construct: purchased ENZO
T17 sequence (P49863 27-264): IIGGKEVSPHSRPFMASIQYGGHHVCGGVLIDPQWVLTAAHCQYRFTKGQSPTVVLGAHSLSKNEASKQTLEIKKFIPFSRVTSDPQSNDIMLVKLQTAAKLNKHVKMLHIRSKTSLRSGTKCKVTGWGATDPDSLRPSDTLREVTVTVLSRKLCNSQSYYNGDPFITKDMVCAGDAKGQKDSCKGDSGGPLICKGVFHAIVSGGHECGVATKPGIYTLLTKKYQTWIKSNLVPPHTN
Protocol: as §1

T6 sequence (Q6V1X1 whole entry): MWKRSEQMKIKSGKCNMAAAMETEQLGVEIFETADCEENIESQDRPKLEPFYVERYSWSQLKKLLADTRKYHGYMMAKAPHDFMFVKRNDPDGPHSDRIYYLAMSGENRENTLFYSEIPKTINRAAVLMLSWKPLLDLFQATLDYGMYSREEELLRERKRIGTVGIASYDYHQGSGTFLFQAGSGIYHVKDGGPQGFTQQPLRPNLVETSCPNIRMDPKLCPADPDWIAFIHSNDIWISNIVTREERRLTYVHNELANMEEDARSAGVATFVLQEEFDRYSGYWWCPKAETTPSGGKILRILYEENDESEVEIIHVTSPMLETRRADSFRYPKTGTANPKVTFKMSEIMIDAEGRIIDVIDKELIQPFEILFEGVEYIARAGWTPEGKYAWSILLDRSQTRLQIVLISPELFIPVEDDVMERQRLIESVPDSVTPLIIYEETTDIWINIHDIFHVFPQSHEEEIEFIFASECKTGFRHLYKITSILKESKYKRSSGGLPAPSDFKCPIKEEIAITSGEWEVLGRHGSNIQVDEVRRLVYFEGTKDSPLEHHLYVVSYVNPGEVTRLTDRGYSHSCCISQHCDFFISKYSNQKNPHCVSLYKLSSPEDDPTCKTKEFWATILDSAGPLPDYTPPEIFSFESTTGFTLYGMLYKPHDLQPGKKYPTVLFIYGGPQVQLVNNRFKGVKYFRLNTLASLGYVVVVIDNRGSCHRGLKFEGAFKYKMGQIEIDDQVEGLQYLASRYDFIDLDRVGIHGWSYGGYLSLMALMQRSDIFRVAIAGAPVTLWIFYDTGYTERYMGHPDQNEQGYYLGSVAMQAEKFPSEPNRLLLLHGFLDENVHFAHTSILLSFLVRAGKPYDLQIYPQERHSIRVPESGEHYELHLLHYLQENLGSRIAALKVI
T16 sequence (P00742 235-488 limits assumed): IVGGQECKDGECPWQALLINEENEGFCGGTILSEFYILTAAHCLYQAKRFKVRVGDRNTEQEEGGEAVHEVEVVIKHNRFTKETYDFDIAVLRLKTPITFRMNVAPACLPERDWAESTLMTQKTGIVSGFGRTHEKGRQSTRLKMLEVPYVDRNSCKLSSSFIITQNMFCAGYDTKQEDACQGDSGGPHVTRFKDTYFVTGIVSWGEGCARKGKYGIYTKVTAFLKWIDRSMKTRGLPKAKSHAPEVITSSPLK
T16 sequence (P00742 41-179 partner limits assumed): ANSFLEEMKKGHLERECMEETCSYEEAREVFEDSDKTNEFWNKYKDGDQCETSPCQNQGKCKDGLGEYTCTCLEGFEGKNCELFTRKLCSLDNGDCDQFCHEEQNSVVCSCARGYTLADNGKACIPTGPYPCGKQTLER
T10 sequence (P09958 108-794): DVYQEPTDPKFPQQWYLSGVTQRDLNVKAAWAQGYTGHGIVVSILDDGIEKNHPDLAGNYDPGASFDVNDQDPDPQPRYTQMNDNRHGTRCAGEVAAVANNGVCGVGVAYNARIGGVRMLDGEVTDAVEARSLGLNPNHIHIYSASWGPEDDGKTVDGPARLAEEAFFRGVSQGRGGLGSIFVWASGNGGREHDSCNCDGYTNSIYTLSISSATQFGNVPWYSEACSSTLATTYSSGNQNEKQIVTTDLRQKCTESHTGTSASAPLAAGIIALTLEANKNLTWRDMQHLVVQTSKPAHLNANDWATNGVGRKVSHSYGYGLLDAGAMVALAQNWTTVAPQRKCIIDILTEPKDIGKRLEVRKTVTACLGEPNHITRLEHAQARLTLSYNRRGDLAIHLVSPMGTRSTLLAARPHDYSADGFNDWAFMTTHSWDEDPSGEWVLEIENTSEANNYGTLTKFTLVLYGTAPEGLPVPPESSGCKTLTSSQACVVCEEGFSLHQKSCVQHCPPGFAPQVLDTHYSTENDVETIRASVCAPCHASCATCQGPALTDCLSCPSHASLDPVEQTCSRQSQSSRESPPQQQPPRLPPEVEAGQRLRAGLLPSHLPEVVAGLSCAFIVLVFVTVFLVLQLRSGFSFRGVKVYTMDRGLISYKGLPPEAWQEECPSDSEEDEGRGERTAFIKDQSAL
T1 sequence (P00750 36-562): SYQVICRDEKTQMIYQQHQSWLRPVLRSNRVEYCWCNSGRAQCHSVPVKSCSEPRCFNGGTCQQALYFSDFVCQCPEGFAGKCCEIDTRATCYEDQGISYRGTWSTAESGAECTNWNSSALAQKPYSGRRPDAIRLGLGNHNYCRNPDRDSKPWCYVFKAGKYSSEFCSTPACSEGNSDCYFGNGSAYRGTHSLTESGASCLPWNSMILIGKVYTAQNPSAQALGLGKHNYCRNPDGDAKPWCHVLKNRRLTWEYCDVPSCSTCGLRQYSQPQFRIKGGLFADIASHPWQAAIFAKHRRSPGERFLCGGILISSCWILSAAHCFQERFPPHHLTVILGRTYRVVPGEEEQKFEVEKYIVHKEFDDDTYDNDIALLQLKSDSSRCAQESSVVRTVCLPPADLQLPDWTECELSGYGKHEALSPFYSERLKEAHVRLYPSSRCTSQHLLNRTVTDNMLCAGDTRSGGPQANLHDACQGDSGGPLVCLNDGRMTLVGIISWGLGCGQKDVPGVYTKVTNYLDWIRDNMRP
T7 sequence (Q9H3S3 218-457 limits assumed): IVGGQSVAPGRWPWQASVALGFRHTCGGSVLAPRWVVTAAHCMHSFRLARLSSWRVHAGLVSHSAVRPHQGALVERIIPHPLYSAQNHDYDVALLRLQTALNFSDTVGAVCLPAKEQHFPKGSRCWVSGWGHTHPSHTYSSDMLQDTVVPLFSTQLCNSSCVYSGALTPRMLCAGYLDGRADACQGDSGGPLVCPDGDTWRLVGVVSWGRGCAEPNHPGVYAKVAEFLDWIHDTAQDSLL
T15 sequence (P00747 581-810 limits assumed): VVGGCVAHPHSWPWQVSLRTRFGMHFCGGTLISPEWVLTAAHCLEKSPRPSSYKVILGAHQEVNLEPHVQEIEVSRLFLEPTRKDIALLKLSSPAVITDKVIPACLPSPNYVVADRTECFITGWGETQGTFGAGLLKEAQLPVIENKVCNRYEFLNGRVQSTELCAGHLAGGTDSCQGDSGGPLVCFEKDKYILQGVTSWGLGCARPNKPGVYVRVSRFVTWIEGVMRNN
T15 sequence (P00747 97-580 partner limits assumed): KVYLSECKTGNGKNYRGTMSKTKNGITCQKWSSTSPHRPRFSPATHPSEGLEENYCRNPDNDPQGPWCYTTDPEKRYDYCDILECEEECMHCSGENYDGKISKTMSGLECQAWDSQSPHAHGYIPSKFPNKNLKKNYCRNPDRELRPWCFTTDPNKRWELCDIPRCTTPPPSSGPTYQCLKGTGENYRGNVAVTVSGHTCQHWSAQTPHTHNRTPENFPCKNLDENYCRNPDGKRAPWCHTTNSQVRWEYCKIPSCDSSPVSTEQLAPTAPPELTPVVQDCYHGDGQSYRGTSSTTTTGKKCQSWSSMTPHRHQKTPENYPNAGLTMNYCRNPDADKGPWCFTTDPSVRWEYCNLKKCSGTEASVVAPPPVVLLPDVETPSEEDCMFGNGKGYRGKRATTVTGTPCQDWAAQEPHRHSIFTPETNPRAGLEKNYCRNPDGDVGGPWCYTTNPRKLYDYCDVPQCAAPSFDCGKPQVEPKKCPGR
T14 sequence (P27487 whole entry): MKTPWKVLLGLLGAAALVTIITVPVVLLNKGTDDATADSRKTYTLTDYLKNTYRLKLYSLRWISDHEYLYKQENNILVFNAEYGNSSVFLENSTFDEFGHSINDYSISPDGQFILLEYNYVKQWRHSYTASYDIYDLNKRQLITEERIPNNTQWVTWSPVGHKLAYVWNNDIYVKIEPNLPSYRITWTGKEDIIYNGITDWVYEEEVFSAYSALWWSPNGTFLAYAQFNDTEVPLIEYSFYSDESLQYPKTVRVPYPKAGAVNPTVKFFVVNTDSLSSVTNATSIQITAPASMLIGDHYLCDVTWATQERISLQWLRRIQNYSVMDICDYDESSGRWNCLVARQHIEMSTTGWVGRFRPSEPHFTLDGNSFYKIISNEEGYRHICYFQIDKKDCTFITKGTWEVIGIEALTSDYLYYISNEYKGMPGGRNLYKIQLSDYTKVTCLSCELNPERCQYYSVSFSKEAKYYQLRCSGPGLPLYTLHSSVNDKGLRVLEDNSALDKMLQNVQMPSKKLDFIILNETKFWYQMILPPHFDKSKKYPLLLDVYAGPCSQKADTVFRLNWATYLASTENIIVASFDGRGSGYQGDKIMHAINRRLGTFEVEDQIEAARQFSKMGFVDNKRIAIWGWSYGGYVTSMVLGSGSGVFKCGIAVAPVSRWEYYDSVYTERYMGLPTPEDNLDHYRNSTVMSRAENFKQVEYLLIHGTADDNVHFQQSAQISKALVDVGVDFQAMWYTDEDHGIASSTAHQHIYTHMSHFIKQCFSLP

OB(O)c1cc(Br)cc(N2CCCC2)c1 [Compound 3] was tested, and the inhibition at 100 µM (tPA) was 26%, the inhibition at 100 µM (PSMB10) was 43% and the inhibition at 100 µM (Prolyl Oligopeptidase) was 61%. It also gave an inhibition at 100 µM (Thrombin) of 32%, an inhibition at 100 µM (Kallikrein11) of -71% and an inhibition at 100 µM (DPP8) of 42%. It also gave an inhibition at 100 µM (Spinesin) of 26%, an inhibition at 100 µM (PSMB7) of 39% and an inhibition at 100 µM (PSMB8) of 19%. It also gave an inhibition at 100 µM (Furin) of 1%, an inhibition at 100 µM (Kallikrein13) of 3% and an inhibition at 100 µM (PSMB6) of 16%. For the same molecule, the inhibition at 100 µM (GranzymeA) was 12%, the inhibition at 100 µM (DPP4) was 6% and the inhibition at 100 µM (Plasmin) was 13%. For the same molecule, the inhibition at 100 µM (Factor-Xa) was 53% and the inhibition at 100 µM (GranzymeK) was 5%.
With OB(O)c1cc(Br)cc(OCc2ccccc2)c1 [Compound 3.9] the inhibition at 100 µM (tPA) was 40%, the inhibition at 100 µM (PSMB10) was 78% and the inhibition at 100 µM (Prolyl Oligopeptidase) was 48%. For the same molecule, the inhibition at 100 µM (Thrombin) was 54%, the inhibition at 100 µM (Kallikrein11) was -148% and the inhibition at 100 µM (DPP8) was 53%. The inhibition at 100 µM (Spinesin) was 13%, the inhibition at 100 µM (PSMB7) was 70% and the inhibition at 100 µM (PSMB8) was 52%. For the same molecule, the inhibition at 100 µM (Furin) was -2%, the inhibition at 100 µM (Kallikrein13) was -1% and the inhibition at 100 µM (PSMB6) was 54%. It also gave an inhibition at 100 µM (GranzymeA) of 23%, an inhibition at 100 µM (DPP4) of 2% and an inhibition at 100 µM (Plasmin) of 16%. The inhibition at 100 µM (Factor-Xa) was 26% and the inhibition at 100 µM (GranzymeK) was 14%.
Molecule OB(O)c1cc(Br)cc(Oc2ccccc2)c1 [Compound 3.10, 3-Bromo-5-phenoxyfenylboronic acid] has an inhibition at 100 µM (tPA) of 19%, an inhibition at 100 µM (PSMB10) of 45% and an inhibition at 100 µM (Prolyl Oligopeptidase) of 30%. It also gave an inhibition at 100 µM (Thrombin) of 58%, an inhibition at 100 µM (Kallikrein11) of -43% and an inhibition at 100 µM (DPP8) of 37%. For the same molecule, the inhibition at 100 µM (Spinesin) was 34%, the inhibition at 100 µM (PSMB7) was 48% and the inhibition at 100 µM (PSMB8) was 49%. The inhibition at 100 µM (Furin) was -5%, the inhibition at 100 µM (Kallikrein13) was 0% and the inhibition at 100 µM (PSMB6) was 27%. For the same molecule, the inhibition at 100 µM (GranzymeA) was 12%, the inhibition at 100 µM (DPP4) was -3% and the inhibition at 100 µM (Plasmin) was -2%. The inhibition at 100 µM (Factor-Xa) was 35% and the inhibition at 100 µM (GranzymeK) was 3%.
